Experimental data published in patent US9156850B2, “Enediyne compounds, conjugates thereof, and uses and methods therefor” (Bristol-Myers Squibb Company, priority 2012, dated 2015).
Where two headings read alike, the source gives them in different places. Values belong to the compound of their own block, whether it stands above or below them.

Key:
Format in all cases: cell-based
786-O renal cancer cells = assay: Antiproliferative activity, ATP assay, 786-O; conditions: Homo sapiens
Experimental: (§1) The antiproliferative activity of compounds of this invention or their conjugates was assayed as follows. Human tumor cell lines were obtained from the American Type Culture Collection (ATCC), P.O. Box 1549, Manassas, Va. 20108, USA, and cultured according to instruction from the ATCC. Cells were seeded at 1.0×10^3 or 1.0×10^4 cells/well in 96-well plates for 3 h for ATP assays or ^3H thymidine assays, respectively. 1:3 serial dilutions of free (unconjugated) compounds or their conjugates were added to the wells. Plates were allowed to incubate for 24 to 72 h. The ^3H thymidine plates were pulsed with 1.0 μCi of ^3H-thymidine per well for the last 24 hours of the total incubation period, harvested, and read on a Top Count Scintillation Counter (Packard Instruments, Meriden, Conn.). ATP levels in the ATP plates were measured using the CELLTITER-GLO® Luminescent Cell Viability kit following the manufacturer's manual and read on a GLOMAX® 20/20 luminometer (both from Promega, Madison, Wis., USA). The EC50 values—the concentration at which an agent inhibits or reduces cell proliferation by 50%—were determined using PRISM™ software, version 4.0 (GraphPad Software, La Jolla, Calif., USA).
The ATP assay was used, with a 72 h incubation period.

A549 (lung) = assay: Antiproliferative activity, ATP method, A549; conditions: Homo sapiens
LS174T (colon) = assay: Antiproliferative activity, ATP method, LS174T; conditions: Homo sapiens
Experimental: as §1
(§2) The assay method was the ATP method. The cancer cell lines tested against were A2780 (ovarian), A549 (lung), CCRF-CEM (acute lymphoblastic leukemia), COLO205 (colon), DU4475 (breast), H2087 (lung, non-small cell), H661 (lung, large cell), HCT116 (colon), LNCaP (prostate), LS174T (colon), MDA MB468 (breast), MDA MB231 (breast), and SET2 (leukemia). The antiproliferative effects are reported as IC50's, i.e., the concentration of toxin that produces a 50% inhibitory effect.

HL-60 leukemia cells = assay: Antiproliferative activity, ATP assay, HL-60; conditions: Homo sapiens
Experimental: as §1
FIG. 11a is a plot of the antiproliferative activity of compound (IIa) against HL-60 leukemia cells, as measured by the ATP assay using a 72 h incubation period, compared against three reference compounds: doxorubicin (adriamycin), uncialamycin, and Compound A, which is a DNA alkylating agent having the following structure: […]

[1] = test system: CCRF-CEM (acute lymphoblastic leukemia); assay: Antiproliferative activity, ATP method, CCRF-CEM; conditions: Homo sapiens
Experimental: as §1, §2

H661 (lung, large cell) = assay: Antiproliferative activity, ATP method, H661; conditions: Homo sapiens, NCI-H661
Experimental: as §1, §2

DU4475 (breast) = assay: Antiproliferative activity, ATP method, DU4475; conditions: Homo sapiens, DU-4475
Experimental: as §1, §2

MDA MB468 (breast) = assay: Antiproliferative activity, ATP method, MDA MB468; conditions: Homo sapiens, MDA-MB-468
Experimental: as §1, §2

COLO205 (colon) = assay: Antiproliferative activity, ATP method, COLO205; conditions: Homo sapiens, COLO 205
Experimental: as §1, §2

SET2 (leukemia) = assay: Antiproliferative activity, ATP method, SET2; conditions: Homo sapiens, SET-2
Experimental: as §1, §2

MDA MB231 (breast) = assay: Antiproliferative activity, ATP method, MDA MB231; conditions: Homo sapiens, MDA-MB-231
Experimental: as §1, §2

[2] = test system: H2087 (lung, non-small cell); assay: Antiproliferative activity, ATP method, H2087; conditions: Homo sapiens, NCI-H2087
Experimental: as §1, §2

H226 lung cancer cells = assay: Antiproliferative activity, ATP assay, H226; conditions: Homo sapiens
Experimental: as §1
FIG. 12b is a similar antiproliferative plot, but against H226 lung cancer cells. The ATP assay was used, with a 72 h incubation period.
FIG. 13c is another plot of the antiproliferative activity of conjugates 2H5-(IVf) and 6A4-(IVf) against H226 cells, but measured using the ATP assay, with a 72 h incubation period.

HCT116 (colon) = assay: Antiproliferative activity, ATP method, HCT116; conditions: Homo sapiens, HCT-116
Experimental: as §1, §2

LNCaP (prostate) = assay: Antiproliferative activity, ATP method, LNCaP; conditions: Homo sapiens
Experimental: as §1, §2

[3] = test system: doxorubicin-resistant ovarian cancer cell line (Adr); assay: Antiproliferative activity, ATP assay, Adr; conditions: Homo sapiens
Experimental: as §1
FIG. 11b is an analogous plot of antiproliferative activity against a doxorubicin-resistant ovarian cancer cell line (Adr), also using the ATP assay and a 72 h incubation period.

A2780 (ovarian) = assay: Antiproliferative activity, ATP method, A2780; conditions: Homo sapiens
Experimental: as §1, §2

[4] = A549 cell line, ATP method, read-out: IC50
[5] = LS174T cell line, ATP method, read-out: IC50
[6] = HL-60 leukemia cells, ATP assay, 72 h incubation, read-out: EC50
[7] = CCRF-CEM cell line, ATP method, read-out: IC50
[8] = H661 cell line, ATP method, read-out: IC50
[9] = DU4475 cell line, ATP method, read-out: IC50
[10] = MDA MB468 cell line, ATP method, read-out: IC50
[11] = COLO205 cell line, ATP method, read-out: IC50
[12] = SET2 cell line, ATP method, read-out: IC50
[13] = MCD MB231 cell line, ATP method, read-out: IC50
[14] = H2087 cell line, ATP method, read-out: IC50
[15] = HCT116 cell line, ATP method, read-out: IC50
[16] = LNCaP cell line, ATP method, read-out: IC50
[17] = Adr cells (doxorubicin-resistant ovarian), ATP assay, 72 h incubation, read-out: EC50
[18] = A2790 cell line, ATP method, read-out: IC50

Structure (SMILES): C[C@@H](O)[C@@]12O[C@]13c1cc(O)c4c(c1N[C@H]2C#C/C=C\C#C[C@H]3O)C(=O)c1ccc(N)cc1C4=O [Compound (IIa), 8-aminouncialamycin]
EC50 (786-O renal cancer cells; 786-0, 72 h): 0.116 nM | IC50 (A549 (lung); A549): 0.076 nM | IC50 (LS174T (colon); LS174T): 0.002 nM | EC50 (HL-60 leukemia cells; HL-60, 72 h): 0.00404 nM | IC50 ([1]; CCRF-CEM): 0.014 nM | IC50 (H661 (lung, large cell)): 0.053 nM | IC50 (DU4475 (breast)): 0.002 nM | IC50 (MDA MB468 (breast)): 0.012 nM | IC50 (COLO205 (colon)): 0.01 nM | IC50 (SET2 (leukemia)): 0.008 nM | IC50 (MDA MB231 (breast)): 0.085 nM | IC50 [2]: 0.037 nM | EC50 (H226 lung cancer cells; NCI-H226, 72 h): 1 nM | IC50 (HCT116 (colon)): 0.007 nM | IC50 (LNCaP (prostate); LNCaP): 0.001 nM | EC50 ([3]; 72 h): 0.0612 nM | IC50 (A2780 (ovarian)): 0.003 nM

Structure (SMILES): C[C@@H](O)[C@@]12O[C@]13c1cc(O)c4c(c1N[C@H]2C#C/C=C\C#C[C@H]3O)C(=O)c1ccc(NCCN)cc1C4=O [Compound (IIc)]
EC50 (786-O renal cancer cells; 786-0, 72 h): 1.27 nM | EC50 (H226 lung cancer cells; NCI-H226, 72 h): 0.986 nM

Structure (SMILES): C[C@@H](O)[C@@]12O[C@]13c1cc(O)c4c(c1N[C@H]2C#C/C=C\C#C[C@H]3O)C(=O)c1ccc(NC(=O)c2ccc(N)cc2)cc1C4=O [Compound (IId)]
EC50 (786-O renal cancer cells; 786-0, 72 h): 0.058 nM | EC50 (H226 lung cancer cells; NCI-H226, 72 h): 0.873 nM

Structure (SMILES): CNc1ccc2c(c1)C(=O)c1c(O)cc3c(c1C2=O)N[C@H]1C#C/C=C\C#C[C@@H](O)[C@@]32O[C@@]12[C@@H](C)O [Compound (IIe), 8-methylaminouncialamycin]
EC50 (786-O renal cancer cells; 786-0, 72 h): 1.72 nM | EC50 (H226 lung cancer cells; NCI-H226, 72 h): 17.4 nM

Structure (SMILES): Nc1ccc(C(=O)Nc2ccc3[nH]c(C(=O)N4C[C@@H](CCl)c5c4cc(O)c4ccccc54)cc3c2)cc1 [Compound A]
IC50 (A549 (lung); [4]): 0.04 nM | IC50 (LS174T (colon); [5]): 0.015 nM | EC50 (HL-60 leukemia cells; [6]): 0.00187 nM | IC50 [1, 7]: 0.019 nM | IC50 (H661 (lung, large cell); [8]): 0.02 nM | IC50 (DU4475 (breast); [9]): 0.001 nM | IC50 (MDA MB468 (breast); [10]): 0.009 nM | IC50 (COLO205 (colon); [11]): 0.019 nM | IC50 (SET2 (leukemia); [12]): 0.002 nM | IC50 (MDA MB231 (breast); [13]): 0.068 nM | IC50 [2, 14]: 0.019 nM | IC50 (HCT116 (colon); [15]): 0.002 nM | IC50 (LNCaP (prostate); [16]): 0.01 nM | EC50 [3, 17]: 0.143 nM | IC50 (A2780 (ovarian); [18]): 0.004 nM

EC50 (786-O renal cancer cells; 786-0, 786-O cells, ATP assay, 72 h incubation, read-out: EC50): 92.3 nM | IC50 (A549 (lung); [4]): 138 nM | EC50 (HL-60 leukemia cells; [6]): 5.98 nM | IC50 [1, 7]: 19.4 nM | IC50 (H661 (lung, large cell); [8]): 26.6 nM | IC50 (COLO205 (colon); [11]): 19.7 nM | IC50 (SET2 (leukemia); [12]): 67.6 nM | IC50 [2, 14]: 54.4 nM | EC50 (H226 lung cancer cells; NCI-H226, H226 cells, ATP assay, 72 h incubation, free compounds, read-out: EC50): 141 nM | IC50 (HCT116 (colon); [15]): 23.4 nM | IC50 (LNCaP (prostate); [16]): 5.5 nM | EC50 [3, 17]: 3850 nM | IC50 (A2780 (ovarian); [18]): 11.2 nM
Structure (SMILES): COc1cccc2c1C(=O)c1c(O)c3c(c(O)c1C2=O)C[C@@](O)(C(=O)CO)C[C@@H]3O[C@H]1C[C@H](N)[C@H](O)[C@H](C)O1 [Doxorubicin, doxorubicin]
IC50 (LS174T (colon); [5]): 11.1 nM | IC50 (DU4475 (breast); [9]): 2.9 nM | IC50 (MDA MB468 (breast); [10]): 29 nM | IC50 (MDA MB231 (breast); [13]): 90.5 nM

Structure (SMILES): C[C@@H](O)[C@@]12O[C@]13c1cc(O)c4c(c1N[C@H]2C#C/C=C\C#C[C@H]3O)C(=O)c1ccccc1C4=O [Uncialamycin, uncialamycin]
EC50 (HL-60 leukemia cells; HL-60, 72 h): 0.012 nM | EC50 ([3]; 72 h): 0.085 nM
